Reference: patent US20240067682A1, “PEPTIDE HAVING PLANT STEM CELL-INDUCING EFFECT AND PLANT PEST RESISTANCE-INDUCING EFFECT” (KYOTO PREFECTURAL PUBLIC UNIVERSITY CORPORATION, priority 2020, published 2024)

Key:
[1] = system: genes related to disease resistance; test: RNA-seq gene expression after 48 hours immersion in CAP peptide; type: in vivo, Arabidopsis thaliana; conditions: 600 nM, immersion 48 hours, vs water
Procedure: RNA of Arabidopsis thaliana immersed in water or a 600 nM CAP peptide solution for 48 hours was extracted, and gene expression was compared by RNA-seq analysis. Network analysis was then performed.

[2] = system: genes related to freezing tolerance and drought tolerance; test: RNA-seq gene expression after 4 hours immersion in CAP peptide; type: in vivo, Arabidopsis thaliana; conditions: 600 nM, immersion 4 hours, vs water
Procedure: RNA of Arabidopsis thaliana immersed in water or a 600 nM CAP peptide solution for 4 hours was extracted, and gene expression was compared by RNA-seq analysis. Network analysis was then performed on genes with increased expression.

[3] = system: Pseudomonas syringae pv tomato DC3000; test: DC3000 infection of Arabidopsis thaliana leaves sprayed with 600 nM CAP peptide, bacterial count; type: in vivo; conditions: leaves sprayed with 600 nM CAP peptide/0.02% Silwet L-77 24 hours before infection; counted 2 days after infection
Procedure: Next, Arabidopsis thaliana leaves were sprayed with water/0.02% Silwet L-77 (Control) or 600 nM CAP peptide/0.02% Silwet L-77, and 24 hours later, infected with Pseudomonas syringae pv tomato DC3000 (DC3000) with an OD600 of 0.2×10^−3. 2 days later, DC3000 obtained from leaf fragments cut into 4-mm-diameter circles was diluted and spotted on LB medium containing kanamycin. After incubation at 28° C. for 24 hours, the number of bacteria per unit area was counted.

[4] = system: Pseudomonas syringae DC3000; test: DC3000 inoculation of Arabidopsis thaliana leaves applied with 60 nM CAP peptide; type: in vivo
Procedure: Arabidopsis thaliana leaves applied with water or 60 nM CAP peptide were inoculated with Pseudomonas syringae DC3000.

[5] = system: Cherry tomato Sun Cherry seedlings; test: Growth promotion of cherry tomato Sun Cherry seedlings; type: in vivo; conditions: 1 μM CAP peptide sprayed twice (Jul. 21 and July 28); t-test p<0.05
Procedure: Cherry tomato Sun Cherry seedlings were purchased, sprayed with 1 μM CAP peptide on Jul. 21, 2021, and then grown in planters in an alley. The second 1 μM CAP peptide treatment was performed on July 28.

[6] = system: wild-type Arabidopsis thaliana seeds; test: Osmotic and drought tolerance: growth of peptide-immersed seeds on excess mannitol- or sorbitol-containing medium; type: in vivo
Procedure: Next, wild-type Arabidopsis thaliana seeds were immersed in water (Control) or 600 nM CAP peptide for 5 minutes and then grown on an excess mannitol-containing medium. Further, wild-type Arabidopsis thaliana seeds were immersed in water (Control) or 600 nM CAP peptide overnight, and then grown on an excess sorbitol-containing medium.

[7] = system: Pseudomonas syringae pv tomato DC3000; test: DC3000 inoculation of Brassica rapa leaves sprayed with 60 nM CAP peptide; type: in vivo
Procedure: Brassica rapa leaves were sprayed with water or a 60 nM CAP peptide solution in advance, and one day later, inoculated with plant pathogen Pseudomonas syringae pv tomato DC3000 (DC3000). 2 days after infection, DC3000 obtained from leaf fragments cut into 4-mm-diameter circles was diluted, spotted on LB medium containing kanamycin, and incubated at 28° C. for 24 hours.

Rorippa aquatica = test: Agrobacterium transformation of Rorippa aquatica in the presence of CAP peptide; type: in vivo; conditions: 1 μM CAP peptide mixed with Agrobacterium carrying GFP-TUB6 plasmid
Procedure: Agrobacterium introduced with a plasmid expressing GFP-TUB6 protein was mixed with CAP peptide to final concentrations of 50 nM, 1 μM, and 10 μM, and transformed into Rorippa aquatica.

[8] = system: Arabidopsis thaliana expressing stem cell marker PLT1-GFP; test: Stem cell induction in Arabidopsis thaliana roots expressing stem cell marker PLT1-GFP (confocal imaging); type: in vivo; conditions: 600 nM peptide aqueous solution, immersion 2 days
Procedure: Arabidopsis thaliana roots were treated with CAP peptide ([…]). Arabidopsis thaliana expressing stem cell marker PLT1-GFP was immersed in water or a 600 nM peptide aqueous solution for 2 days, and GFP fluorescent images and bright field images were obtained with a confocal laser microscope.

[9] = system: Arabidopsis thaliana seeds; test: Germination of Arabidopsis thaliana seeds harvested 10 years before; type: in vivo; conditions: seeds immersed in 1, 10 or 100 μM CAP peptide for 2 hours; measured 2 weeks after sowing
Procedure: Arabidopsis thaliana seeds harvested 10 years before and not naturally germinated were immersed in 0, 1, 10, or 100 μM CAP peptide for 2 hours and then sown. The germination rate was measured 2 weeks later.

[10] = system: Pseudomonas syringae pv tomato DC3000; test: Disease tolerance test with CAP6 peptide: DC3000 infection of sprayed Arabidopsis thaliana leaves; type: in vivo; conditions: 60 nM CAP6 peptide/0.02% Silwet L-77 sprayed 48 hours before infection; counted one day after infection
Procedure: Multiple types (76 types) of CAP proteins derived from Schlechtendalia chinensis, Caloptilia cecidophora, Borboryctis euryae, Caloptilia ryukyuensis, Rhus javanica, and Arabidopsis thaliana were aligned. From the consensus sequence (FIG. 9), FTQIVW (SEQ ID NO: 21) was determined (hereinafter referred to as “CAP6 peptide”). Then, Arabidopsis thaliana leaves were sprayed with 0.02% Silwet L-77 (Control), 60 nM CAP peptide/0.02% Silwet L-77, or 60 nM CAP6 peptide/0.02% Silwet L-77, and 48 hours later, infected with Pseudomonas syringae pv tomato DC3000 (DC3000) with an OD600 of 0.2×10^−3. One day later, DC3000 obtained from leaf fragments cut into 5-mm-diameter circles was diluted and spotted on LB medium containing kanamycin. 24 hours later, the number of bacteria per unit area was counted.

Substance | increase in expression of genes related to disease resistance [1] [factor] | increase in expression of genes related to freezing tolerance and drought tolerance [2] [factor] | growth of bacteria after infection [3] | growth of the pathogen ([4]; 4 days after infection) | plant body growth vs water treatment ([4]; 13 days after infection) | seed yield vs water treatment ([4]; 13 days after pathogen infection) | effect of promoting stem extension compared with CAP-untreated group [5] | root extension on excess mannitol-containing medium vs control ([6]; 600 nM, 5 minutes immersion, high-osmotic pressure conditions) | root extension on excess sorbitol-containing medium vs control ([6]; 600 nM, overnight immersion, dry conditions) | growth on excess mannitol-containing medium, mean value ([6]; seeds immersed in 600 nM CAP peptide for 5 minutes, high-osmotic pressure conditions, FIG. 3 upper) | growth on excess sorbitol-containing medium, mean value ([6]; seeds immersed in 600 nM CAP peptide overnight, dry conditions, FIG. 3 lower) | freshness after pathogen treatment vs water treatment ([7]; 60 nM CAP peptide sprayed one day before inoculation) | inhibition of bacterial growth compared with water treatment ([7]; 60 nM CAP peptide, 2 days after pathogen inoculation) [times] | transformation efficiency (Rorippa aquatica) | transformation of differentiated cells into stem cells ([8]; PLT1-GFP marker) | induction of gall-like structure ([8]; roots) | germination rate compared with gibberellin treatment [9] | disease tolerance effect [10]
TQVVWKSTTNIGVGILIVNGTV (partial peptide of CAP) [CAP peptide, synthetic peptide from the conserved region of insect CAP (cysteine-rich secretory protein, antigen 5, and pathogenesis-related 1)] | 2 to 3 | ≥ 2 | suppressed the growth of bacteria | significantly inhibited | grew much larger | yielded more seeds | significantly confirmed | extended more | extended more | 11.69 (S.D.=1.55) | 7.71 (S.D.=1.39) | freshness was maintained for a longer period of time | ≥ 1000 | high efficiency transformation | differentiated cells were transformed into stem cells | induced a gall-like structure | much higher germination rate | –
FTQIVW (consensus sequence of CAP) [CAP6 peptide] | – | – | – | – | – | – | – | – | – | – | – | – | – | – | – | – | – | a remarkable effect was obtained
